According to patent US4861795A, “Treatment of conditions requiring enhanced oxygen availability to mammalian tissues” (Rorer Pharmaceutical Corporation, priority 1988, dated 1989):
Counter-ions that a name gives are not always drawn.

Biological target: T1, 2,3-DPG phosphatase (Homo sapiens, UniProt P07738)
T1 sequence (P07738 1-259): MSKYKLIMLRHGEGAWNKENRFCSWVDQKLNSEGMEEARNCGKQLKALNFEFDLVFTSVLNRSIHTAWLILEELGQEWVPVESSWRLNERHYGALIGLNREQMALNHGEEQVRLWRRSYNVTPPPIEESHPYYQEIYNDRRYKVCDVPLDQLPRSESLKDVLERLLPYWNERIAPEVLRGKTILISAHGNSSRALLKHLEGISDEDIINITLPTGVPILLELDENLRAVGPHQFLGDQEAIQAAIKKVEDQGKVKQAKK
Assay: 2,3-Diphosphoglycerate Phosphatase Assay (radiochemical, release of inorganic 32P-phosphate from 2,3-DPG)
Assay type: biochemical
Details: 100 μM compound; pH 7.5, 110 μM 32P-labeled 2,3-DPG, 5 μM phosphoglycolate, 37° C., 20 minutes
Description: 2,3-Diphosphoglycerate Phosphatase Assay The activity of 2,3-DPG phosphatase was determined radiochemically using a method based on Rose et al. (J. Biol. Chem. 245, 3232-3241, 1970). In this method the activity of the phosphatase is measured by determining the release of inorganic phosphate from the substrate, 2,3-DPG. The test compounds were dissolved in dimethyl sulfoxide at 100 times the final concentration used and then added to the reaction mixture at the beginning of the assay period. In the control experiments equivalent concentration of dimethyl sulfoxide was used. […] At the end of incubation the reaction was stopped by the addition of 0.1 ml of 15% w/v trichloroacetic acid and the sample was centrifuged (Eppendorf microfuge, Model 5413) in order to remove protein precipitates. Then 0.2 ml of the supernatant was withdrawn and mixed with 0.1 ml of 8 M sulfuric acid, 0.1 ml of 5% w/v ammonium molybdate and 0.6 ml of water. The mixture then was extracted with 2 ml of isobutanol/benzene (1:1,v/v) and then centrifuged to effect separation of the phases. 1 ml of the organic phase containing the extracted ^32 p-phosphate was counted in a scintillation counter (Beckman, Model LS 8,000) using a program for ^32 p radioactivity. The activity of the enzyme was expressed as number of mole phosphate release per minute. From the data obtained by employing the test method above-described, the percent inhibition of 2,3-DPG phosphatase was calculated and is shown in Table II.

SMILES | inhibition at 100 µM [%]
O=C(O)c1cc2cccc(OCCc3ccccc3)c2cc1O [b, 5-phenetoxy-3-hydroxy-2-naphthoic acid] | 94.3
CC(=O)Oc1cccc2cc(C(=O)O)c(O)cc12 [g, 5-acetoxy-3-hydroxy-2-naphthoic acid] | 89.6
O=C(O)c1cc2cccc(OCc3ccccc3)c2cc1O [h, 5-benzyloxy-3-hydroxy-2-naphthoic acid] | 74
O=C(O)c1cc2cccc(OCc3ccc(Cl)c(Cl)c3)c2cc1O [q, 5-(3,4-dichlorobenzyloxy)-3-hydroxy-2-naphthoic acid] | 97.7
C=CCCCCCCCCCOc1cccc2cc(C(=O)O)c(O)cc12 [x, 3-hydroxy-5(undecenyloxy)-2-naphthoic acid] | 100
O=C(O)c1cc2cccc(OCc3ccccc3)c2cc1OC(=O)C(Cl)Cl [y, 5-benzyloxy-3-dichloroacetoxy-2-naphthoic acid] | 81.9

Next, values leading:

inhibition at 100 µM [%] | SMILES
79.2 | COc1cccc2cc(C(=O)O)c(O)cc12 [a, 5-methoxy-3-hydroxy-2-naphthoic acid]
94.3 | O=C(O)c1cc2cccc(OCc3cccc(C(F)(F)F)c3)c2cc1O [c, 5-(3-trifluoromethylbenzyloxy)-3-hydroxy-2-naphthoic acid]
92.5 | O=C(O)c1cc2cccc(OCCOc3ccccc3)c2cc1O [d, 5-phenoxyethoxy-3-hydroxy-2-naphthoic acid]
99.2 | CCOC(=O)c1cc2cccc(OCCN3CCCC3)c2cc1OCCN1CCCC1 [p, ethyl 3,5-bis[2-(1-pyrrolidinyl)ethoxy]-2-naphthoate monohydrochloride]
97.1 | O=C(O)c1cc2cccc(OCCCc3ccccc3)c2cc1O [r, 3-hydroxy-5-(3-phenylpropoxy)-2-naphthoic acid]
95.6 | O=C(O)c1cc2cccc(OCc3ccc(Cl)cc3Cl)c2cc1O [s, 5-(2,4-dichlorobenzyloxy)-3-hydroxy-2-naphthoic acid]
94.2 | O=C(O)c1cc2cccc(OCc3c(Cl)cccc3Cl)c2cc1O [t, 5-(2,6-dichlorobenzyloxy)-3-hydroxy-2-naphthoic acid]
86.9 | O=C(O)c1cc2cccc(OCCCc3ccc(Cl)c(Cl)c3)c2cc1O [u, 5-[3-(3,4-dichlorophenyl)-propoxy]-3-hydroxy-2-naphthoic acid]
89 | O=C(O)c1cc2cccc(OCc3ccc(F)cc3)c2cc1O [v, 5-(4-fluorobenzyloxy)-3-hydroxy-2-naphthoic acid]
93.6 | O=C(O)c1cc2cccc(OCc3ccc(Cl)c(Cl)c3)c2cc1OCc1ccc(Cl)c(Cl)c1 [w, 3,5-bis-(3,4-dichlorobenzyloxy)-2-naphthoic acid]

Tested on: oxygen-dissociation curve in whole human blood
Assay: not given
Details: in vitro, increase of 2,3-DPG; cited from earlier work

SMILES | displacement of the oxygen-dissociation curve (in words)
O=C(O)C(COP(=O)(O)O)OP(=O)(O)O (centres unmarked) [2,3-DPG, 2,3-diphosphoglyceric acid] | displaces in vitro the oxygen-dissociation curve to the right of normal
